Measurements from patent US8901118B2, “Compounds and methods for kinase modulation, and indications therefor” (Plexxikon Inc., priority 2010, dated 2014).

What was measured:
CYP3A4(BFC) = CYP3A4(BFC) (Homo sapiens, UniProt P08684); test: CYP3A4(BFC) inhibition; type: in vitro ADME; conditions: CYP3A4, substrate BFC; read-out: Cyp IC50 3A4(BFC)
Method in brief: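 Inhibition of human CYP3A4 with the BFC substrate was measured by fluorescence loss of the metabolized product. Compounds at 100 mM in DMSO were diluted 1 μL into 82 μL acetonitrile, then 11 μL into 204 μL cofactor mix with NADPH regeneration solutions, and serially diluted 1:1 to 10 points. Plates were incubated 30 min at 37° C and read at 409 ex/460 em to obtain IC50.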

BCR-FMS BaF3 cells = molecular target: T1, BCR-FMS BaF3 cells (Homo sapiens, UniProt P07333); test: BaF3 BCR-FMS cell proliferation assay (ATPlite); type: cell-based; conditions: read-out: Inhibition of Cell Proliferation IC50, BCR/BaF3 Fms
T1 construct: fused on or other part: P11274 (Breakpoint cluster region protein)
T1 sequence (P07333 582-910): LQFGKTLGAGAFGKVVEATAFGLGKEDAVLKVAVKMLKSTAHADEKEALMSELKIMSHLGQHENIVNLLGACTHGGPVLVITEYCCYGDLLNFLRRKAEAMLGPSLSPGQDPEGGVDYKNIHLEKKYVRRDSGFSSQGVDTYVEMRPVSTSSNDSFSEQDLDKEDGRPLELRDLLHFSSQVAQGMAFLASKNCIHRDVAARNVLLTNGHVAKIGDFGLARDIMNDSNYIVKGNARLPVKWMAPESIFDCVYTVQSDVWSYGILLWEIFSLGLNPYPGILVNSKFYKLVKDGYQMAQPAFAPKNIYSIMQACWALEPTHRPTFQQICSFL
Method in brief: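 Growth inhibition over 3 days at 37 °C; IC50 from ATPlite luminescence, 8 concentrations (1:3 steps, max 10 μM). BaF3 fusion lines were tested without IL-3.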

Sequence of CYP3A4(BFC) (P08684 whole entry): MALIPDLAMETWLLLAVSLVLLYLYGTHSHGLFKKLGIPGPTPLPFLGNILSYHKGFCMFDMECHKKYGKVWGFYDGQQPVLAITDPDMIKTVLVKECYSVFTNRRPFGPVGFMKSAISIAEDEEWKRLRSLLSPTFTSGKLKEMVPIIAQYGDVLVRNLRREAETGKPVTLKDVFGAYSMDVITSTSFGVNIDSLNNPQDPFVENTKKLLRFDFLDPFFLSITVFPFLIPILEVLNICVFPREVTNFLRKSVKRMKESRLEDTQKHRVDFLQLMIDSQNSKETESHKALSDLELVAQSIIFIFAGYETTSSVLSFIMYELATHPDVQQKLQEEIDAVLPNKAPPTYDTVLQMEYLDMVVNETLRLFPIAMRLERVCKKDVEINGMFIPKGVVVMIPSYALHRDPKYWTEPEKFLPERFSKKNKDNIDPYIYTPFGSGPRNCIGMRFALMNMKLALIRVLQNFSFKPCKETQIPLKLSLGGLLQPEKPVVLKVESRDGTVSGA

IC50 (CYP3A4(BFC)) | IC50 (BCR-FMS BaF3 cells) | SMILES
< 5 µM | < 0.1 µM | CCOc1ccc(Nc2ccc(C(=O)c3c[nH]c4ncnc(OC)c34)c(F)n2)cn1 [Compound P-4024, [6-(6-Ethoxy-pyridin-3-ylamino)-2-fluoro-pyridin-3-yl]-(4-methoxy-7H-pyrrolo[2,3-d]pyrimidin-5-yl)-methanone]
5 to 10 µM | < 0.01 µM | COCCOc1ncnc2[nH]cc(Cc3ccc(Nc4ccc(OC)nc4)nc3F)c12 [Compound P-4019, {6-Fluoro-5-[4-(2-methoxy-ethoxy)-7H-pyrrolo[2,3-d]pyrimidin-5-ylmethyl]-pyridin-2-yl}-(6-methoxy-pyridin-3-yl)-amine]
> 10 µM | < 0.01 µM | CCOc1ncnc2[nH]cc(Cc3ccc(Nc4ccc(C)nc4)nc3F)c12 [Compound P-4017, [5-(4-Ethoxy-7H-pyrrolo[2,3-d]pyrimidin-5-ylmethyl)-6-fluoro-pyridin-2-yl]-(6-methyl-pyridin-3-yl)-amine]
5 to 10 µM | < 0.01 µM | CCOc1ncnc2[nH]cc(Cc3ccc(Nc4ccc(OC)nc4)nc3F)c12 [Compound P-4018, [5-(4-Ethoxy-7H-pyrrolo[2,3-d]pyrimidin-5-ylmethyl)-6-fluoro-pyridin-2-yl]-(6-methoxy-pyridin-3-yl)-amine]
> 10 µM | < 0.1 µM | Fc1nc(NC2CCC(F)(F)CC2)ccc1Cc1c[nH]c2ncnc(NCC(F)(F)F)c12 [Compound P-4128, 5-[[6-[(4,4-difluorocyclohexyl)amino]-2-fluoro-3-pyridyl]methyl]-N-(2,2,2-trifluoroethyl)-7H-pyrrolo[2,3-d]pyrimidin-4-amine]
> 10 µM | < 0.01 µM | CCc1ccc(Nc2ccc(Cc3c[nH]c4ncnc(OCCOC)c34)c(F)n2)cn1 [Compound P-4016, (6-Ethyl-pyridin-3-yl)-{6-fluoro-5-[4-(2-methoxy-ethoxy)-7H-pyrrolo[2,3-d]pyrimidin-5-ylmethyl]-pyridin-2-yl}-amine]
> 10 µM | < 0.01 µM | CCc1ccc(Nc2ccc(Cc3c[nH]c4ncnc(C5CC5)c34)c(F)n2)cn1 [Compound P-4028, [5-(4-Cyclopropyl-7H-pyrrolo[2,3-d]pyrimidin-5-ylmethyl)-6-fluoro-pyridin-2-yl]-(6-ethyl-pyridin-3-yl)-amine]
< 5 µM | < 0.1 µM | Fc1nc(NC2CCC(F)(F)CC2)ccc1Cc1c[nH]c2ncnc(NC3CC3)c12 [Compound P-4129, N-cyclopropyl-5-[[6-[(4,4-difluorocyclohexyl)amino]-2-fluoro-3-pyridyl]methyl]-7H-pyrrolo[2,3-d]pyrimidin-4-amine]
< 5 µM | < 0.1 µM | CCOc1ncnc2[nH]cc(C(=O)c3ccc(Nc4ccc(OC)nc4)nc3F)c12 [Compound P-4025, (4-Ethoxy-7H-pyrrolo[2,3-d]pyrimidin-5-yl)-[2-fluoro-6-(6-methoxy-pyridin-3-ylamino)-pyridin-3-yl]-methanone]
> 10 µM | < 0.01 µM | Cc1ccc(Nc2ccc(Cc3c[nH]c4ncnc(C5CC5)c34)c(F)n2)cn1 [Compound P-4030, [5-(4-Cyclopropyl-7H-pyrrolo[2,3-d]pyrimidin-5-ylmethyl)-6-fluoro-pyridin-2-yl]-(6-methyl-pyridin-3-yl)-amine]
< 5 µM | < 0.01 µM | COc1ccc(Nc2ccc(Cc3c[nH]c4ncnc(C5CC5)c34)c(F)n2)cn1 [Compound P-4023, [5-(4-cyclopropyl-7H-pyrrolo[2,3-d]pyrimidin-5-ylmethyl)-6-fluoro-pyridin-2-yl]-(6-methoxy-pyridin-3-yl)-amine]

More lines, now with the values behind:

SMILES | IC50 (CYP3A4(BFC)) | IC50 (BCR-FMS BaF3 cells)
CCc1ccc(Nc2ccc(Cc3c[nH]c4ncc(C)cc34)c(F)n2)cn1 [Compound P-3048, (6-Ethyl-pyridin-3-yl)-[6-fluoro-5-(5-methyl-1H-pyrrolo[2,3-b]pyridin-3-ylmethyl)-pyridin-2-yl]-amine] | > 10 µM | < 0.01 µM
CCOc1ccc(Nc2ccc(Cc3c[nH]c4ncnc(C)c34)c(F)n2)cn1 [Compound P-4006, (6-Ethoxy-pyridin-3-yl)-[6-fluoro-5-(4-methyl-7H-pyrrolo[2,3-d]pyrimidin-5-ylmethyl)-pyridin-2-yl]-amine] | > 10 µM | < 0.01 µM
Fc1nc(Nc2ccc(C3CC3)nc2)ccc1Cc1c[nH]c2ncccc12 [Compound P-3053, (6-Cyclopropyl-pyridin-3-yl)-[6-fluoro-5-(1H-pyrrolo[2,3-b]pyridin-3-ylmethyl)-pyridin-2-yl]-amine] | > 10 µM | < 0.01 µM
Cc1cnc2[nH]cc(C(=O)c3ccc(Nc4ccc(C)nc4)nc3F)c2c1 [Compound P-3043, [2-Fluoro-6-(6-methyl-pyridin-3-ylamino)-pyridin-3-yl]-(5-methyl-1H-pyrrolo[2,3-b]pyridin-3-yl)-methanone] | > 10 µM | < 0.1 µM
CCOc1ncnc2[nH]cc(Cc3ccc(Nc4cnn(CC)c4)nc3F)c12 [Compound P-4012, [5-(4-Ethoxy-7H-pyrrolo[2,3-d]pyrimidin-5-ylmethyl)-6-fluoro-pyridin-2-yl]-(1-ethyl-1H-pyrazol-4-yl)-amine] | > 10 µM | < 0.01 µM
COc1ccc(Nc2ccc(Cc3c[nH]c4ncnc(C)c34)c(F)n2)cn1 [Compound P-4002, [6-Fluoro-5-(4-methyl-7H-pyrrolo[2,3-d]pyrimidin-5-ylmethyl)-pyridin-2-yl]-(6-methoxy-pyridin-3-yl)-amine] | > 10 µM | < 0.1 µM
COc1ccc(Nc2ccc(Cc3c[nH]c4ncnc(OC)c34)c(F)n2)cn1 [Compound P-4001, [6-Fluoro-5-(4-methoxy-7H-pyrrolo[2,3-d]pyrimidin-5-ylmethyl)-pyridin-2-yl]-(6-methoxy-pyridin-3-yl)-amine] | > 10 µM | < 0.01 µM
COc1ncnc2[nH]cc(Cc3ccc(Nc4ccc(Cl)nc4)nc3F)c12 [Compound P-4003, (6-Chloro-pyridin-3-yl)-[6-fluoro-5-(4-methoxy-7H-pyrrolo[2,3-d]pyrimidin-5-ylmethyl)-pyridin-2-yl]-amine] | > 10 µM | < 0.1 µM
CCn1cc(Nc2ccc(Cc3c[nH]c4ncnc(OCCOC)c34)c(F)n2)cn1 [Compound P-4014, (1-Ethyl-1H-pyrazol-4-yl)-{6-fluoro-5-[4-(2-methoxy-ethoxy)-7H-pyrrolo[2,3-d]pyrimidin-5-ylmethyl]-pyridin-2-yl}-amine] | 5 to 10 µM | < 0.1 µM
Cc1cnc2[nH]cc(C(=O)c3ccc(Nc4ccc(C5CC5)nc4)nc3F)c2c1 [Compound P-3051, [6-(6-Cyclopropyl-pyridin-3-ylamino)-2-fluoro-pyridin-3-yl]-(5-methyl-1H-pyrrolo[2,3-b]pyridin-3-yl)-methanone] | > 10 µM | < 0.1 µM
CCc1ccc(Nc2ccc(C(=O)c3c[nH]c4ncc(C)cc34)c(F)n2)cn1 [Compound P-3049, [6-(6-Ethyl-pyridin-3-ylamino)-2-fluoro-pyridin-3-yl]-(5-methyl-1H-pyrrolo[2,3-b]pyridin-3-yl)-methanone] | > 10 µM | < 0.01 µM
O=C(c1ccc(Nc2ccc(C3CC3)nc2)nc1F)c1c[nH]c2ncccc12 [Compound P-3052, [6-(6-Cyclopropyl-pyridin-3-ylamino)-2-fluoro-pyridin-3-yl]-(1H-pyrrolo[2,3-b]pyridin-3-yl)-methanone] | > 10 µM | < 0.1 µM
FC1(F)CCC(Nc2ncc(Cc3c[nH]c4ncc(Cl)cc34)cn2)CC1 [Compound P-3004] | > 10 µM | < 0.1 µM
